Assay results taken from US20240398784A1, “C-LINKED ISOQUINOLINE AMIDES AS LRRK2 INHIBITORS, PHARMACEUTICAL COMPOSITIONS, AND USES THEREOF” (Merck Sharp & Dohme LLC, priority 2021, published 2024).

target: LRRK2 G2019S (Homo sapiens, UniProt Q5S007, G2019S); experiment: LRRK2 G2019S Km ATP LanthaScreen assay; format: biochemical; details: read-out: LRRK2 pIC50 (converted)
Sequence (Q5S007 whole entry G2019S): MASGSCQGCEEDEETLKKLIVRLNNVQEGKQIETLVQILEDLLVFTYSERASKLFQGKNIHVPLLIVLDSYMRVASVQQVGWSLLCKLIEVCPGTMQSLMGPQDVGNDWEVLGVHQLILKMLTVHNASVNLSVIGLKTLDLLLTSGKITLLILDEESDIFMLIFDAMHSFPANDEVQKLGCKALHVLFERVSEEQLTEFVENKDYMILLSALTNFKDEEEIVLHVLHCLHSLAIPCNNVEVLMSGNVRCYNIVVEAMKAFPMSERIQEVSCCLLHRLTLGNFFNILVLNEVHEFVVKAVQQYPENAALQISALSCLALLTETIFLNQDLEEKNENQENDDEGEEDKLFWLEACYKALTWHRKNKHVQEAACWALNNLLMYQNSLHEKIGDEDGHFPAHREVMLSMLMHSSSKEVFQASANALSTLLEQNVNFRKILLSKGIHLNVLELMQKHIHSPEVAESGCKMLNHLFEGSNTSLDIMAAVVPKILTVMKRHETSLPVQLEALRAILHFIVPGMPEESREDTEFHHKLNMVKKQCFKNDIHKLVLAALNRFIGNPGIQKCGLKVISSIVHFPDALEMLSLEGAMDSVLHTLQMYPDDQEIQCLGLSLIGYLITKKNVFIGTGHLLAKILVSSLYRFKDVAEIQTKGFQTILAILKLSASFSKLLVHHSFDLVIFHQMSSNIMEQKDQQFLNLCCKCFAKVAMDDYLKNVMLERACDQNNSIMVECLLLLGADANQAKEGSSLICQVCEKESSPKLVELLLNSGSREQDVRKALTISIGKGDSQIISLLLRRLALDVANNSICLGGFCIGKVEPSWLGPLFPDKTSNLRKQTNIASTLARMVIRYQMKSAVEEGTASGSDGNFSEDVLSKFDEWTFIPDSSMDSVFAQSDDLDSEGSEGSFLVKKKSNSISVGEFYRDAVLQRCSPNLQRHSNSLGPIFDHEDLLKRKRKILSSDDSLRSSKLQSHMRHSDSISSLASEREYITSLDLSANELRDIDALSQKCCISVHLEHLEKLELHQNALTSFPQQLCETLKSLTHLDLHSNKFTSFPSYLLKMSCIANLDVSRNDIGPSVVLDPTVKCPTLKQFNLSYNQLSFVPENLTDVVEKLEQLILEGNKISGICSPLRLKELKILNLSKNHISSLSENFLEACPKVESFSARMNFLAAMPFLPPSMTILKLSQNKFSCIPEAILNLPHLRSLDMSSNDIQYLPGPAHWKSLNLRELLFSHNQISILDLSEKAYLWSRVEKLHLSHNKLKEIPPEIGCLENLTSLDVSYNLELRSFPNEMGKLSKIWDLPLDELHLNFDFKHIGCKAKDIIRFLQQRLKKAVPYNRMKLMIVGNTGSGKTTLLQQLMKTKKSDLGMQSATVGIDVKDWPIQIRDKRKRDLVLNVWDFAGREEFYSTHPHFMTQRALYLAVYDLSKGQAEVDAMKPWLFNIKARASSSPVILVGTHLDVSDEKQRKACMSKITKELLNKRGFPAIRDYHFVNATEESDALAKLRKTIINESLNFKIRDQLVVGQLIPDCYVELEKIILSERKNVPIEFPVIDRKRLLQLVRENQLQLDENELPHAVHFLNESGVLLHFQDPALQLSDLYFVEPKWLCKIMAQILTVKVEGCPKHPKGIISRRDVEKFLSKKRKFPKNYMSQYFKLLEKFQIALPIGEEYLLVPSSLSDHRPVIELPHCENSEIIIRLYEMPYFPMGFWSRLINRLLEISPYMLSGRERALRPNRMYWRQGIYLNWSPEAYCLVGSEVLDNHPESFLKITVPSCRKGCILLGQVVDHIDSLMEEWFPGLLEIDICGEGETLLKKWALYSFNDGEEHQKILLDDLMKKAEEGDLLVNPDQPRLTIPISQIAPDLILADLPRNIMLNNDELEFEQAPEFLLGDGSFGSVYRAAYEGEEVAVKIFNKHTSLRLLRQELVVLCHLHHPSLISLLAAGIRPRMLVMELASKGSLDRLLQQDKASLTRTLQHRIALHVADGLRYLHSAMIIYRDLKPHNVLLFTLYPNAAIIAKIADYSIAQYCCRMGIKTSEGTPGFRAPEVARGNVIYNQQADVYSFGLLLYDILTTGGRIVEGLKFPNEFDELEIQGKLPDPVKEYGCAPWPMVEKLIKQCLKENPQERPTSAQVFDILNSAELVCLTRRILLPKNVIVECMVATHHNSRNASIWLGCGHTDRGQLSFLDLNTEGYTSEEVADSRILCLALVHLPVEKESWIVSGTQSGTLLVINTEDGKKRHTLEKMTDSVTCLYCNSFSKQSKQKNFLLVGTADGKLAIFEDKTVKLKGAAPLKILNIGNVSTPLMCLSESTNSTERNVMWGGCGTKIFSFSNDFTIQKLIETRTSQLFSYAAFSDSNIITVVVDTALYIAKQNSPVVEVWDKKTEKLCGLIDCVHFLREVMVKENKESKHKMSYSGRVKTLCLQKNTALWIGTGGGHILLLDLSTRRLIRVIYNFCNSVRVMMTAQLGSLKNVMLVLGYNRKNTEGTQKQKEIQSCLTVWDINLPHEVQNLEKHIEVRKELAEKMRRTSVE

| IC50 [nM] | Structure (SMILES) |
| --- | --- |
| 0.0813 | CC1(N2CCC(c3cc4cc(NC(=O)C5CC5c5ccncc5)ncc4cc3Cl)CC2)COCC1O (single isomer, unassigned) [Ex-4.21, N-(7-chloro-6-(1-(4-hydroxy-3-methyltetrahydrofuran-3-yl)piperidin-4-yl)isoquinolin-3-yl)-2-(pyridin-4-yl)cyclopropane-1-carboxamide] |
| 0.537 | CC1(N2CCC(c3cc4cc(NC(=O)C5CC56CCOC6)ncc4cc3Cl)CC2)COCC1F (single isomer, unassigned) [Ex-6.5, (R or S)-N-(7-chloro-6-(1-((3R,4R or 3S,4S)-4-fluoro-3-methyltetrahydrofuran-3-yl)piperidin-4-yl)isoquinolin-3-yl)-5-oxaspiro [2.4] heptane-1-carboxamide] |
| 20 | CN1CCOC(CC(=O)Nc2cc3cc(C4(C#N)CC45CC5)ccc3cn2)C1 (single isomer, unassigned) [Ex-1.47, (R or S)-N-(6-(1-cyanospiro[2.2]pentan-1-yl)isoquinolin-3-yl)-2-(4-methylmorpholin-2-yl)acetamide] |
| 0.0813 | CC1(N2CCC(c3cc4cc(NC(=O)Cc5cccnc5)ncc4cc3Cl)CC2)COCC1O (stereo not shown) [Ex-3.7] |
| 3.98 | O=C(Nc1cc2cc(C3CCN(C4COC4)CC3)c(Cl)cc2cn1)[C@@H]1CCCCO1 [Ex-1.10, (S)-N-(7-chloro-6-(1-(oxetan-3-yl)piperidin-4-yl)isoquinolin-3-yl)tetrahydro-2H-pyran-2-carboxamide] |
| 0.759 | Cc1cc2cnc(NC(=O)C3C4CCOCC43)cc2cc1C1CCN(C2(C)COCC2O)CC1 (stereo not shown) [Ex-2.51] |
| 0.0813 | CC1C(C(=O)Nc2cc3cc(C4CCN(C5(C)COCC5F)CC4)c(Cl)cc3cn2)C1c1cnn(C)c1 (stereo not shown) [Ex-2.80] |
| 55 | CC1(N2CCC(c3cc4cc(NC(=O)c5cnn(C6CC6)c5)ncc4cc3Cl)CC2)COCC1O (single isomer, unassigned) [Ex-1.48, N-(7-chloro-6-(1-((3R,4R or 3S,4S)-4-hydroxy-3-methyltetrahydrofuran-3-yl)piperidin-4-yl)isoquinolin-3-yl)-1-cyclopropyl-1H-pyrazole-4-carboxamide] |
| 3.02 | CCOC1CC2(C1)CC2C(=O)Nc1cc2cc(C3CCN(C4(C)COCC4O)CC3)c(Cl)cc2cn1 (single isomer, unassigned) [Ex-4.30, N-(7-chloro-6-(1-(4-hydroxy-3-methyltetrahydrofuran-3-yl)piperidin-4-yl)isoquinolin-3-yl)-5-ethoxyspiro[2.3]hexane-1-carboxamide] |
| 117 | O=C(Nc1cc2cc(C3CCN(C4COCC4O)CC3)c(Cl)cc2cn1)C1CC12CCOCC2 (single isomer, unassigned) [Ex-4.4, N-(7-chloro-6-(1-(4-hydroxytetrahydrofuran-3-yl)piperidin-4-yl)isoquinolin-3-yl)-6-oxaspiro[2.5]octane-1-carboxamide] |
| 0.0813 | COC1CN(C2CCC(c3cc4cc(NC(=O)C5CC56CCOCC6)ncc4cc3Cl)CC2)C1 (single isomer, unassigned) [Ex-11.3, N-(7-chloro-6-(4-(3-methoxyazetidin-1-yl)cyclohexyl)isoquinolin-3-yl)-6-oxaspiro[2.5]octane-1-carboxamide] |
| 2.14 | O=C(Nc1cc2cc(C3CCN(C4COC4)CC3)c(Cl)cc2cn1)C1CC1 [Ex-7.6, N-(7-chloro-6-(1-(oxetan-3-yl)piperidin-4-yl)isoquinolin-3-yl)cyclopropanecarboxamide] |
| 0.0813 | CC1(N2CCC(c3cc4cc(NC(=O)c5cnn(C6CC6)c5Cl)ncc4cc3Cl)CC2)COCC1O (single isomer, unassigned) [Ex-1.50, 5-chloro-N-(7-chloro-6-(1-((3R,4R or 3S,4S)-4-hydroxy-3-methyltetrahydrofuran-3-yl)piperidin-4-yl)isoquinolin-3-yl)-1-cyclopropyl-1H-pyrazole-4-carboxamide] |
| 0.166 | CC1(N2CCC(c3cc4cc(NC(=O)C5COC6(CCC6)C5)ncc4cc3Cl)CC2)COCC1O (single isomer, unassigned) [Ex-4.18, N-(7-chloro-6-(1-(4-hydroxy-3-methyltetrahydrofuran-3-yl)piperidin-4-yl)isoquinolin-3-yl)-5-oxaspiro[3.4]octane-7-carboxamide] |
| 0.631 | O=C(Nc1cc2cc(C3CCN(C4COCC4O)CC3)c(Cl)cc2cn1)C1CC12CCOCC2 (single isomer, unassigned) [Ex-4.1, (R or S)-N-(7-chloro-6-(1-((3R,4R or 3R, 4R)-4-hydroxytetrahydrofuran-3-yl)piperidin-4-yl)isoquinolin-3-yl)-6-oxaspiro[2.5]octane-1-carboxamide] |
| 9.77 | CC1(C)CC(C(=O)Nc2cc3cc(C4(C#N)CC45CC5)ccc3cn2)CC(C)(C)O1 (single isomer, unassigned) [Ex-1.27, N-(6-((R or S)-1-cyanospiro[2.2]pentan-1-yl)isoquinolin-3-yl)-2,2,6,6-tetramethyltetrahydro-2H-pyran-4-carboxamide] |

| IC50 [nM] | Structure (SMILES) |
| --- | --- |
| 0.112 | CC1(N2CCC(c3cc4cc(NC(=O)c5cnn(C6CC6)c5Cl)ncc4cc3Cl)CC2)COCC1F (single isomer, unassigned) [Ex-1.51, 5-chloro-N-(7-chloro-6-(1-((3R,4R or 3S,4S)-4-fluoro-3-methyltetrahydrofuran-3-yl)piperidin-4-yl)isoquinolin-3-yl)-1-cyclopropyl-1H-pyrazole-4-carboxamide] |
| 11.5 | O=C(Nc1cc2cc(C3CCN(C4COC4)CC3)c(Cl)cc2cn1)c1cocn1 [Ex-1.38, N-(7-chloro-6-(1-(oxetan-3-yl)piperidin-4-yl)isoquinolin-3-yl)oxazole-4-carboxamide] |
| 1.91 | Cn1cc(C2CC2C(=O)Nc2cc3cc(C4CCC(N5CC(F)C5)CC4)c(Cl)cc3cn2)cn1 (single isomer, unassigned) [Ex-5.7, N-(7-cchloro-6-(4-(3-fluoroazetidin-1-yl)cyclohexyl)isoquinolin-3-yl)-2-(1-methyl-1H-pyrazol-4-yl)cyclopropane-1-carboxamide] |
| 0.302 | Cc1cc2cnc(NC(=O)C3CC4(CC4)C3)cc2cc1C1CCN(C2(C)COCC2O)CC1 (single isomer, unassigned) [Ex-15.2, N-(6-(1-(4-hydroxy-3-methyltetrahydrofuran-3-yl)piperidin-4-yl)-7-methylisoquinolin-3-yl)spiro[2.3]hexane-5-carboxamide] |
| 1.78 | CC1(C)CC(C(=O)Nc2cc3cc(C4CCC(N5CCC(F)C5)CC4)c(Cl)cc3cn2)CCO1 (single isomer, unassigned) [Ex-5.9, N-(7-chloro-6-(4-(3-fluoropyrrolidin-1-yl)cyclohexyl)isoquinolin-3-yl)-2,2-dimethyltetrahydro-2H-pyran-4-carboxamid] |
| 2.24 | CC1(C)CC(C(=O)Nc2cc3cc(C4CCC(N5CCC(F)C5)CC4)c(Cl)cc3cn2)CCO1 (single isomer, unassigned) [Ex-5.12, N-(7-chloro-6-(4-(3-fluoropyrrolidin-1-yl)cyclohexyl)isoquinolin-3-yl)-2,2-dimethyltetrahydro-2H-pyran-4-carboxamid] |
| 0.0813 | C[C@@]1(N2CC[C@@H](c3cc4cc(NC(=O)[C@@H]5CC56CC6)ncc4cc3Cl)[C@H](F)C2)COC[C@@H]1O [Ex-23.2, (R)-N-(7-chloro-6-((3S,4S)-3-fluoro-1-((3R,4R)-4-hydroxy-3-methyltetrahydrofuran-3-yl)piperidin-4-yl)isoquinolin-3-yl)spiro[2.2]pentane-1-carboxamide] |
| 11 | CC1C(C(=O)Nc2cc3cc(C4CCN(C5(C)COCC5O)CC4)c(Cl)cc3cn2)C12CCOCC2 (single isomer, unassigned) [Ex-10.6, N-(7-chloro-6-(1-(4-hydroxy-3-methyltetrahydrofuran-3-yl)piperidin-4-yl)isoquinolin-3-yl)-2-methyl-6-oxaspiro[2.5]octane-1-carboxamide] |
| 316 | Cn1cc(C(=O)Nc2cc3cc(C4CCN([C@]5(C)COC[C@@H]5O)CC4)c(Cl)cc3cn2)cn1 (single isomer, unassigned) [Ex-12.8, N-(7-chloro-6-(1-(4-hydroxy-3-methyltetrahydrofuran-3-yl)piperidin-4-yl)isoquinolin-3-yl)-1-methyl-1H-pyrazole-4-carboxamide] |
| 1.95 | O=C(Nc1cc2cc(C3CCN(C4COC4)CC3)c(Cl)cc2cn1)C1CC12CCOCC2 (single isomer, unassigned) [Ex-9.7, N-(7-chloro-6-(1-(oxetan-3-yl)piperidin-4-yl)isoquinolin-3-yl)-6-oxaspiro[2.5]octane-1-carboxamide] |
| 0.38 | CN1CCC(C(=O)Nc2cc3cc(C4CCN(C5(C)COCC5O)CC4)c(Cl)cc3cn2)CC1 (single isomer, unassigned) [Ex-1.19, N-(7-chloro-6-(1-((3R,4R or 3S,4S)-4-hydroxy-3-methyltetrahydrofuran-3-yl)piperidin-4-yl)isoquinolin-3-yl)-1-methylpiperidine-4-carboxamide] |
| 58.9 | CCC1C(C(=O)Nc2cc3cc(C4CCN(C5(C)COCC5F)CC4)c(C)cc3cn2)C1c1cnn(C)c1 (single isomer, unassigned) [Ex-15.15, 2-ethyl-N-(6-(1-(4-fluoro-3-methyltetrahydrofuran-3-yl)piperidin-4-yl)-7-methylisoquinolin-3-yl)-3-(1-methyl-1H-pyrazol-4-yl)cyclopropane-1-carboxamide] |
| 0.182 | CC1(N2CCC(c3cc4cc(NC(=O)C5C6CCCOC65)ncc4cc3Cl)CC2)COCC1O (single isomer, unassigned) [Ex-4.13, N-(7-chloro-6-(1-(4-hydroxy-3-methyltetrahydrofuran-3-yl)piperidin-4-yl)isoquinolin-3-yl)-2-oxabicyclo[4.1.0]heptane-7-carboxamide] |
| 0.631 | CC1(N2CCC(c3cc4cc(NC(=O)Cc5cnn(C(F)F)c5)ncc4cc3Cl)CC2)COCC1O (stereo not shown) [Ex-3.11] |
| 10.5 | CC1(C)CCC(C(=O)Nc2cc3cc(C4CCC(N5CCC(F)C5)CC4)c(Cl)cc3cn2)CO1 (single isomer, unassigned) [Ex-5.20, N-(7-chloro-6-(4-(3-fluoropyrrolidin-1-yl)cyclohexyl)isoquinolin-3-yl)-6,6-dimethyltetrahydro-2H-pyran-3-carboxamide] |
